Data from patent publication US11066414B2, “Cot modulators and methods of use thereof” (Gilead Sciences, Inc., priority 2015, dated 2021).
Read-outs that look alike come from different tables or passages of the source.

Assays:
Human Cot = Human Cot (Homo sapiens (Human), UniProt P41279); test: High Throughput Cot Biochemical Assay
TNFα = test: Cot Monocyte TNFα Cell Based Assay
[1] = IC50 HTRF, Cot HTRF (TR-FRET KinEASE) biochemical assay, 400 μM ATP
[2] = Homo sapiens, Monocyte, read-out: EC50 TNF, LPS-stimulated human monocytes, TNFα TR-FRET
[3] = read-out: IC50 HTRF, Cot HTRF (TR-FRET) biochemical assay
[4] = read-out: EC50 TNF, LPS-stimulated human monocytes, TNFα
[5] = IC50 HTRF, Cot HTRF (TR-FRET) biochemical assay
[6] = Homo sapiens, Monocyte, read-out: EC50 TNF, LPS-stimulated human monocytes, TNFα

Human Cot, sequence (P41279 30-397): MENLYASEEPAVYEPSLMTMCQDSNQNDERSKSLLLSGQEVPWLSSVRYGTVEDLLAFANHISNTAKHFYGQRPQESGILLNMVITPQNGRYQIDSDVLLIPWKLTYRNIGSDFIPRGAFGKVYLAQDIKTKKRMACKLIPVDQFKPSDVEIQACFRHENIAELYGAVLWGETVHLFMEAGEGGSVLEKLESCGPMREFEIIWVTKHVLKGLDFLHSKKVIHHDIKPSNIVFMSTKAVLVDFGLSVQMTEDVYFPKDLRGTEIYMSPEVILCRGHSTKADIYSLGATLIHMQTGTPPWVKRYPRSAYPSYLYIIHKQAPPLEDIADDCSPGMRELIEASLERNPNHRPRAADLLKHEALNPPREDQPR

IC50 (Human Cot; [5])	EC50 (TNFα; [6])	Compound	also measured
–	–	Cn1ccc2c([C@H](Nc3cc(C#N)c4ncc(C#N)c(NCC(C)(C)C)c4c3)c3cn(C45CC(C4)C5)nn3)cccc2c1=O [Example 891, (S)-6-(((1-(bicyclo[1.1.1]pentan-1-yl)-1H-1,2,3-triazol-4-yl)(2-methyl-1-oxo-1,2-dihydroisoquinolin-5-yl)methyl)amino)-4-(neopentylamino)quinoline-3,8-dicarbonitrile]	IC50 (Human Cot; [1]): 1 nM; EC50 (TNFα; [2]): 12 nM
–	–	Cc1ccc([C@H](Nc2cc(C#N)c3ncc(C#N)c(NCC(C)(C)C)c3c2)c2cn(C3(C(F)(F)F)CC3)nn2)cn1 [Example 828, (S)-6-(((6-methylpyridin-3-yl)(1-(1-(trifluoromethyl)cyclopropyl)-1H-1,2,3-triazol-4-yl)methyl)amino)-4-(neopentylamino)quinoline-3,8-dicarbonitrile]	IC50 (Human Cot; [1]): 22 nM; EC50 (TNFα; [2]): 253 nM
–	–	CC(C)(C)CNc1c(C#N)cnc2c(C#N)cc(N[C@H](c3cn(C4(CF)CC4)nn3)c3cccc4cnccc34)cc12 [Example 569]	IC50 (Human Cot; [3]): 7 nM; EC50 (TNFα; [4]): 171 nM
6 nM	234 nM	CC(C)n1cc([C@@H](Nc2cc(Cl)c3ncc(C#N)c(Nc4ccc(F)c(Cl)c4)c3c2)c2ccnn2C)nn1 [Example 304, (S)-8-chloro-4-((3-chloro-4-fluorophenyl)amino)-6-(((1-isopropyl-1H-1,2,3-triazol-4-yl)(1-methyl-1H-pyrazol-5-yl)methyl)amino)quinoline-3-carbonitrile]	–
6 nM	66 nM	CC(C)(C)CNc1c(C#N)cnc2c(Cl)cc(N[C@H](c3cn(C4(C5CC5)CC4)nn3)c3cccc4ncccc34)cc12 [Example 691, (S)-6-(((1-([1,1′-bi(cyclopropan)]-1-yl)-1H-1,2,3-triazol-4-yl)(quinolin-5-yl)methyl)amino)-8-chloro-4-(neopentylamino)quinoline-3-carbonitrile]	–
6 nM	180 nM	Cc1nc(F)ccc1[C@H](Nc1cc(Cl)c2ncc(C#N)c(NCC(C)(C)C)c2c1)c1cn(C(C)(C)C(F)(F)F)nn1 [Example 541, (S)-8-chloro-6-(((6-fluoro-2-methyl-pyridin-3-yl)(1-(1,1,1-trifluoro-2-methylpropan-2-yl)-1H-1,2,3-triazol-4-yl)methyl)amino)-4-(neopentylamino)-quinoline-3-carbonitrile]	–
–	–	CCC(F)(F)Cn1cc([C@@H](Nc2cc(C#N)c3ncc(C#N)c(NCC(C)(C)C)c3c2)c2ccc(F)nc2C)nn1 [Example 837, (S)-6-(((1-(2,2-difluorobutyl)-1H-1,2,3-triazol-4-yl)(6-fluoro-2-methylpyridin-3-yl)methyl)amino)-4-(neopentylamino)quinoline-3,8-dicarbonitrile]	IC50 (Human Cot; [1]): 7 nM; EC50 (TNFα; [2]): 121 nM
–	–	CCC(C)n1cc([C@@H](Nc2cc(Cl)c3ncc(C#N)c(NCC(C)(C)C)c3c2)c2cccc3c(=O)n(C)ccc23)nn1 (stereo partly shown) [Example 801, 6-(((1 S)-(1-(sec-butyl)-1H-1,2,3-triazol-4-yl)(2-methyl-1-oxo-1,2-dihydroisoquinolin-5-yl)methyl)amino)-8-chloro-4-(neopentylamino)quinoline-3-carbonitrile]	IC50 (Human Cot; [1]): 3 nM; EC50 (TNFα; [2]): 31 nM
41 nM	313 nM	CC(C)(C)CNc1c(C#N)cnc2c(Cl)cc(N[C@H](c3cn(C4(C(F)(F)F)CC4)nn3)c3cccc4nccnc34)cc12 [Example 734, (S)-8-chloro-4-(neopentylamino)-6-((quinoxalin-5-yl(1-(1-(trifluoromethyl)-cyclopropyl)-1H-1,2,3-triazol-4-yl)methyl)amino)quinoline-3-carbonitrile]	–
2 nM	32 nM	[2H]C([2H])([2H])n1ccc2c([C@H](Nc3cc(Cl)c4ncc(C#N)c(NCC(C)(C)C)c4c3)c3cn(C45CC(C4)C5)nn3)cccc2c1=O [Example 711, (S)-6-(((1-(bicyclo[1.1.1]pentan-1-yl)-1H-1,2,3-triazol-4-yl)(2-(methyl-d3)-1-oxo-1,2-dihydroisoquinolin-5-yl)methyl)amino)-8-chloro-4-(neopentylamino)quinoline-3-carbonitrile]	–
–	–	COc1nccc2c([C@H](Nc3cc(Cl)c4ncc(C#N)c(NCC(C)(C)C)c4c3)c3cn(C4(C(F)(F)F)CC4)nn3)cccc12 [Example 929, (S)-8-chloro-6-(((1-methoxylsoquinolin-5-yl)(1-(1-(trifluoromethyl)cyclopropyl)-1H-1,2,3-triazol-4-yl)methyl)amino)-4-(neopentylamino)quinoline-3-carbonitrile]	IC50 (Human Cot; read-out: IC50 HTRF, Cot HTRF (TR-FRET KinEASE) biochemical assay, 400 μM ATP): 11 nM; EC50 (TNFα; read-out: EC50 TNF, LPS-stimulated human monocytes, TNFα TR-FRET): 157 nM
2 nM	231 nM	CC(C)(C)CNc1c(C#N)cnc2c(Cl)cc(N[C@H](c3cn(C4(C(N)=O)CCC4)nn3)c3cccc4cnccc34)cc12 [Example 562, (S)-1-(4-(((8-chloro-3-cyano-4-(neopentyl-amino)quinolin-6-yl)amino)(isoquinolin-5-yl)methyl)-1H-1,2,3-triazol-1-yl)cyclobutane-1-carboxamide]	–
–	–	CC(C)(C)CNc1c(C#N)cnc2c(C#N)cc(N[C@H](c3cn(C4(C(F)F)CC4)nn3)c3cccc4c(=O)[nH]ccc34)cc12 [Example 876, (S)-6-(((1-(1-(difluoromethyl)cyclopropyl)-1H-1,2,3-triazol-4-yl)(1-oxo-1,2-dihydroisoquinolin-5-yl)methyl)amino)-4-(neopentylamino)quinoline-3,8-dicarbonitrile]	IC50 (Human Cot; [1]): 2 nM; EC50 (TNFα; [2]): 385 nM
–	–	CC(C)(C)CNc1c(C#N)cnc2c(Cl)cc(N[C@@H](c3ccc4nccn4c3)c3cn(C4(C(F)(F)F)CC4)nn3)cc12 [Example 935, (S)-8-chloro-6-((imidazo[1,2-a]pyridin-6-yl(1-(1-(trifluoromethyl)cyclopropyl)-1H-1,2,3-triazol-4-yl)methyl)amino)-4-(neopentylamino)quinoline-3-carbonitrile]	IC50 (Human Cot; [1]): 24 nM; EC50 (TNFα; [2]): 424 nM
520 nM	> 1000 nM	[2H]C(Nc1cc(Cl)c2ncc(C#N)c(N[C@H](CCC#N)c3ccccc3)c2c1)(c1ccc(F)nc1)c1cn(C2CC2)nn1 (stereo partly drawn) [Example 89, 8-chloro-4-(((R)-3-cyano-1-phenylpropyl)amino)-6-(((1-cyclopropyl-1H-1,2,3-triazol-4-yl)(6-fluoropyridin-3-yl)methyl-d)amino)quinoline-3-carbonitrile]	–
2 nM	79 nM	CC[C@@H](Nc1c(C#N)cnc2c(Cl)cc(N[C@@H](c3cccnc3)c3cn(CCF)nn3)cc12)c1ccccc1 [Example 177, 8-chloro-6-(((S)-(1-(2-fluoroethyl)-1H-1,2,3-triazol-4-yl)(pyridin-3-yl)methyl)amino)-4-(((R)-1-phenylpropyl)amino)quinoline-3-carbonitrile]	–
28 nM	267 nM	Cc1nc(F)ccc1[C@H](Nc1cc(Cl)c2ncc(C#N)c(NCC(C)(C)C#N)c2c1)c1cn(C2(C(F)(F)F)CC2)nn1 [Example 633, (S)-8-chloro-4-((2-cyano-2-methylpropyl)amino)-6-(((6-fluoro-2-methylpyridin-3-yl)(1-(1-(trifluoromethyl)cyclopropyl)-1H-1,2,3-triazol-4-yl)methyl)amino)quinoline-3-carbonitrile]	–
3 nM	141 nM	[2H][C@](Nc1cc(Cl)c2ncc(C#N)c(NCC(C)(C)C)c2c1)(c1cccnc1)c1cn(-c2cccnc2)nn1 [Example 138, (S)-8-chloro-4-(neopentylamino)-6-((pyridin-3-yl(1-(pyridin-3-yl)-1H-1,2,3-triazol-4-yl)methyl-d)amino)quinoline-3-carbonitrile]	–
2 nM	185 nM	Cc1nc(F)ccc1[C@H](Nc1cc(Cl)c2ncc(C#N)c(NCC(C)(C)C)c2c1)c1cn(C2(C(N)=O)CC2)nn1 [Example 477, (S)-1-(4-(((8-chloro-3-cyano-4-(neopentylamino)quinolin-6-yl)amino)(6-fluoro-2-methylpyridin-3-yl)methyl)-1H-1,2,3-triazol-1-yl)cyclopropane-1-carboxamide]	–
–	–	N#CCCC(Nc1c(C#N)cnc2c(Cl)cc(N[C@@H](c3cn(C4CC4)nn3)c3csc4c3CCN(C3COC3)C4)cc12)c1ccccc1 (stereo partly shown) [Example 83, 8-chloro-4-((3-cyano-1-phenylpropyl)amino)-6-(((RH 1-cyclopropyl-1H-1,2,3-triazol-4-yl)(6-(oxetan-3-yl)-4,5,6,7-tetrahydrothieno[2,3-c]pyridin-3-yl)methyl)amino)-quinoline-3-carbonitrile]	IC50 (Human Cot; [3]): 942 nM; EC50 (TNFα; [4]): 1000 nM
6 nM	202 nM	Cc1ncsc1[C@H](Nc1cc(Cl)c2ncc(C#N)c(Nc3ccc(F)c(Cl)c3)c2c1)c1cn(C(C)C)nn1 [Example 306, (R)-8-chloro-4-((3-chloro-4-fluorophenyl)amino)-6-(((1-isopropyl-1H-1,2,3-triazol-4-yl)(4-methylthiazol-5-yl)methyl)amino)quinoline-3-carbonitrile]	–
3 nM	457 nM	N#Cc1cnc2c(Cl)cc(N[C@H](c3cn(C4COC4)nn3)c3csc4c3CCNC4)cc2c1Nc1ccc(F)c(Cl)c1 [Example 279, (S)-8-chloro-4-((3-chloro-4-fluorophenyl)amino)-6-(((1-(oxetan-3-yl)-1H-1,2,3-triazol-4-yl)(4,5,6,7-tetrahydrothieno[2,3-c]pyridin-3-yl)methyl)amino)quinoline-3-carbonitrile]	–
2 nM	33 nM	CC(C)(C)CNc1c(C#N)cnc2c(Cl)cc(N[C@H](c3cn(C4(CF)CC4)nn3)c3cccc4ccncc34)cc12 [Example 594, (S)-8-chloro-6-(((1-(1-(fluoromethyl)cyclopropyl)-1H-1,2,3-triazol-4-yl)(isoquinolin-8-yl)methyl)amino)-4-(neopentylamino)quinoline-3-carbonitrile]	–
